Source: the NIST ThermoML archive (doi:10.1016/j.jct.2011.10.009)
± gives the expanded uncertainty stated by the source.

Conditions: 101.33 kPa, Liquid, Vibrating tube method

mass density (278.15 K) [kg/m3]	mass density (288.15 K) [kg/m3]	mass density (298.15 K) [kg/m3]	mass density (308.15 K) [kg/m3]	mass density (318.15 K) [kg/m3]	SMILES
818.95 ± 0.14	810.32 ± 0.14	801.57 ± 0.14	792.68 ± 0.15	783.63 ± 0.15	[2H]C(C)O (stereo not given) [ethanol-1-d]
802.08 ± 0.11	793.6 ± 0.12	785.03 ± 0.12	776.35 ± 0.12	767.54 ± 0.13	CCO [ethanol]
